Laboratory results reported in patent publication US20260092043A1, “NOVEL BENZOXAZOLE DERIVATIVE COMPRISING 4-AMINO-BUTANAMIDE AND USE THEREOF” (EWHA UNIVERSITY - INDUSTRY COLLABORATION FOUNDATION, priority 2022, published 2026).
Like-named read-outs stand apart in the source and are kept apart here.

Key:
IL-1β mRNA expression = test: Inhibition of IL-1β mRNA expression in LPS-treated HaCaT cells (real-time PCR); assay type: cell-based, Human; conditions: 10 μM compound pretreatment then LPS, LPS alone set to 100%
Description: (§1) Human keratinocytes HaCaT or alpha mouse liver 12 (AML-12) cells were obtained from Cell Lines Service GmbH (Eppelheim, Germany). The cells were cultured in Dulbecco's modified Eagle's medium (DMEM, HyClone) supplemented with 10% fetal bovine serum (HyClone) (HaCaT cells) and 1% penicillin/streptomycin (HyClone) and maintained at 37° C. in a humidified atmosphere containing 5% CO2. AML-12 cells were pretreated with compounds at a concentration of 10 μM 1 hour before LPS treatment and then treated with LPS (100 ng/mL) for 24 hours.
(§2) Total RNA was isolated from tissues using TRIzol reagent (Invitrogen), and reverse transcription (RT) and real-time PCR analysis were performed using the ABI PRISM 7700 system (PE Biosystems). Data were normalized to the amount of GAPDH mRNA.
(§3) 13 novel synthetic compounds (Compounds 5a to 5m) and 3 synthetic intermediates (Compounds 4d, 4e, and 41) were screened by measuring the mRNA expression levels of IL-6 and IL-1β. Human keratinocyte HaCaT cell lines were used to evaluate the mRNA expression inhibition effect. […] Each compound was administered at a concentration of 10 μM.

IL-6 mRNA expression = test: Inhibition of IL-6 mRNA expression in LPS-treated HaCaT cells (real-time PCR); assay type: cell-based, Human; conditions: for mRNA Expression (%) (10 μM) IL-6: HaCaT cells, 10 μM compound pretreatment then LPS, LPS alone set to 100%; for IC50: Homo sapiens, HaCaT
Description: as §1, §2, §3
Dose-response studies were performed for the above five compounds at different concentrations to obtain IC50 values (μM) (FIG. 1 and Table 3).

IL-6 mRNA = IL-6 mRNA level in liver tissue of LPS-injected mice; assay type: in vivo, mice (C57BL/6J); conditions: 10 mg/kg in olive oil 1 hour before LPS (1 mg/kg i.p., 6 h)
Description: (§4) 10-week-old male C57BL/6J mice (Jackson Laboratory, Bar Harbor, ME, USA) were used in the experiment. All animal experiments were performed in accordance with the protocol approved by the Institutional Animal Care and Use Committee of Ewha Womans University (EWHA IACUC 19-001). The mice were housed in a temperature-controlled room (20 to 22° C. with a 12 h light:12 h dark cycle). The compounds prepared according to Examples 1 to 10 were diluted with olive oil (vehicle, Sigma) to a volume of 200 μL (10 mg/kg) and administered to mice (male C57BL/6J, […]) 1 hour before LPS administration. LPS (1 mg/kg, 6 h) was resuspended in saline and injected intraperitoneally at a dose of 1 mg/kg of body weight. At the end of the experiment, the mice were sacrificed (tribromoethanol, 250 mg/kg, i.p.) and the liver and blood were collected for further analysis.
as §2
(§5) 2 compounds (Compounds 4d and 5f) were selected for in vivo assay. […] In order to evaluate the anti-inflammatory activity in mice, the mRNA expressions of IL-1β, IL-6, and TNF-α were measured, and the results are shown in FIG. 3.

pY-STAT3 = test: Western blotting of pY-STAT3 in LPS-treated AML-12 cells; assay type: cell-based, mouse; conditions: 10 μM compound, FIG. 2
Description: as §1
(§6) Protein levels in cells and mouse tissues were determined by immunoblot analysis. […] After quantifying the protein concentrations in the lysates (supernatant) using the Bradford assay (Bio-Rad, CA, USA), the lysates were mixed with a sample buffer (62.5 mM Tris-HCl pH 6.8, 10% glycerol, 2% sodium dodecyl sulfate, 0.0125% bromophenol blue, 2.5% β-mercaptoethanol) and heated at 95° C. for 5 minutes. […] Immune complexes were detected with horseradish peroxidase (HRP)-conjugated secondary antibodies (Bio-Rad, Hercules, CA, USA) and enhanced with chemiluminescence reagents (Ab Frontier, Daejeon, Korea) using IQ800 (GE Healthcare, Sweden). The abundance of the target protein was quantified by densitometric analysis of the immunoblot. […]

TNF-α mRNA = TNF-α mRNA level in liver tissue of LPS-injected mice; assay type: in vivo, mice (C57BL/6J); conditions: 10 mg/kg in olive oil 1 hour before LPS (1 mg/kg i.p., 6 h)
Description: as §4, §2, §5

p-IκBα = test: Western blotting of p-IκBα in LPS-treated AML-12 cells; assay type: cell-based, mouse; conditions: 10 μM compound, FIG. 2
Description: as §1, §6

[1] = Plasma ALT and AST levels in LPS-injected mice; assay type: in vivo, mice (C57BL/6J); conditions: for plasma alanine aminotransferase (ALT) level / plasma aspartate transaminase (AST) level: compared to LPS alone; for hepatotoxicity in vivo: judged by ALT and AST levels
Description: as §4
The concentrations of plasma alanine aminotransferase (ALT) and aspartate transaminase (AST) were determined using an EnzyChrom™ assay kit (BioAssay Systems, Hayward, CA, USA) according to the manufacturer's recommendations.
Consistent with the altered histological characteristics, plasma alanine aminotransferase (ALT) and aspartate transaminase (AST) levels increased after LPS administration (FIGS. 4c and 4d), and when Compounds 5f and 4d were administered, ALT and AST levels decreased.

IL-1β mRNA = IL-1β mRNA level in liver tissue of LPS-injected mice; assay type: in vivo, mice (C57BL/6J); conditions: 10 mg/kg in olive oil 1 hour before LPS (1 mg/kg i.p., 6 h)
Description: as §4, §2, §5

[2] = test system: LPS-induced liver inflammatory disease model; test: Liver histology (H&E) and F4/80 immunohistochemistry in LPS-induced liver inflammatory disease model; assay type: in vivo, mice (C57BL/6J); conditions: mice, compared to LPS alone; for F4/80-positive cells in liver: immunohistochemistry
Description: as §4
First, 4% paraformaldehyde-fixed liver tissues were embedded in paraffin according to standard procedures. 4-micron-thick liver tissue sections were prepared, and immunohistochemical staining was performed according to the manufacturer's instructions. 4-micron-thick liver tissue sections were stained with hematoxylin and eosin (H&E) or subjected to immunohistochemical characterization using an antibody specific for F4/80 (Abcam, Cambridge, MA, UK). All steps were performed at room temperature, and the tissues were washed with tap water after each step. The sections were photographed using a Zeiss microscope (Carl Ziess, Thronwood, NY, USA) equipped with AxioCam software.
As a result of LPS administration, macrophage infiltration into the liver tissue was observed. When Compounds 5f and 4d were administered, the inflammatory response was improved compared to when LPS was administered alone.
In order to characterize the phenotype of macrophages accumulated in LPS-induced inflammation, immunohistochemical studies were performed using antibodies against F4/80 as a marker of mature macrophages (FIG. 4b). When LPS was administered alone to induce an inflammatory response, hepatic macrophage accumulation increased. As a result, there was a marked elevation of the number of F4/80-positive cells.

p-NF-κB p65 = test: Western blotting of p-NF-κB p65 in LPS-treated AML-12 cells; assay type: cell-based, mouse; conditions: 10 μM compound, FIG. 2
Description: as §1, §6

[3] = dose-response of normalized IL-6 mRNA expression (FIG. 1), read-out: IC50
[4] = log of IC50, dose-response of normalized IL-6 mRNA expression (FIG. 1), read-out: Log (converted)

| Compound | mRNA Expression (%) (10 μM) IL-1β (IL-1β mRNA expression) | mRNA Expression (%) (10 μM) IL-6 (IL-6 mRNA expression) | IC50 (IL-6 mRNA expression; [3]) [nM] | IC50 (IL-6 mRNA expression; [4]) [nM] | mRNA level of IL-6 in vivo (IL-6 mRNA) | expression level of pY-STAT3 (pY-STAT3) | mRNA level of TNF-α in vivo (TNF-α mRNA) | expression level of p-IκBα (p-IκBα) | plasma alanine aminotransferase (ALT) level [1] | plasma aspartate transaminase (AST) level [1] | hepatotoxicity in vivo [1] | mRNA level of IL-1β in vivo (IL-1β mRNA) | inflammatory response in liver histology (H&E) [2] | F4/80-positive cells in liver [2] | expression level of p-NF-κB p65 (p-NF-κB p65) |
| --- | --- | --- | --- | --- | --- | --- | --- | --- | --- | --- | --- | --- | --- | --- | --- |
| COc1cc(NC(=O)CCCN)ccc1Nc1nc2cc(C(C)(C)C)ccc2o1 [Compound 5m, 4-amino-N-(4-(5-tert-butylbenzo[d]oxazol-2-ylamino)-3-methoxyphenyl)butanamide] | 0.49 | 4.07 | 0.199 | 0.2 | – | – | – | – | – | – | – | – | – | – | – |
| Cc1ccc2oc(Nc3ccc(NC(=O)CCCN)cc3)nc2c1 [Compound 5d, 4-amino-N-(4-(5-methylbenzo[d]oxazol-2-ylamino)phenyl)butanamide] | 0.03 | 3.39 | 32.7 | 33.1 | – | – | – | – | – | – | – | – | – | – | – |
| CC(C)(C)c1ccc2oc(Nc3ccc(NC(=O)CCCN)cc3)nc2c1 [Compound 5f, 4-amino-N-(4-(5-tert-butylbenzo[d]oxazol-2-ylamino)phenyl)butanamide] | 2.83 | 3.26 | 0.444 | 0.447 | significantly reduced | significantly down-regulated | significantly reduced | significantly down-regulated | decreased | decreased | without hepatotoxicity | significantly reduced | improved | significant decrease | significantly down-regulated |
| Cc1cccc2oc(Nc3ccc(NC(=O)CCCN)cc3)nc12 [Compound 5c, 4-amino-N-(4-(4-methylbenzo[d]oxazol-2-ylamino)phenyl)butanamide] | 0.79 | 2.08 | 1640 | 1660 | – | – | – | – | – | – | – | – | – | – | – |
| Cc1ccc2oc(Nc3ccc(NC(=O)CCCNC(=O)OC(C)(C)C)cc3)nc2c1 [Compound 4d, tert-butyl 4-(4-(5-methylbenzo[d]oxazol-2-ylamino)phenylamino)-4-oxobutylcarbamate] | 0.03 | 2.4 | 0.0604 | 0.0603 | significantly reduced | significantly down-regulated | significantly reduced | significantly down-regulated | decreased | decreased | without hepatotoxicity | significantly reduced | improved | significant decrease | significantly down-regulated |
